Assays:
GCL1 cells = assay: SYTOX cell death assay in GCL1 cells treated with antimycin A (chemical ischemia); format: cell-based, rat hepatoma cells (fao) / human fibroblasts (W138) hybrid
Excerpt: At greater than 80% confluence, more than 80% of the cells participate in forming one or more phaselucent, spherical structures that are located between cells, termed bile canicular-like spaces. In contrast to the majority of cell lines maintained in culture which are fermentative, GCL1 cells, when at their maximal density and polarity, are highly oxidative (i.e., they can be readily killed by inhibitors of oxidative phosphorylation or electron transport uncouplers). […] These cells are amenable to use in high throughput screening (HTS) technology.
The cells, with or without AA, are incubated at 37° C. in a 5% CO2 humidified incubator for 1 to 5 hours. […] The concentration of agents used for screening will be dependent upon the agents. Certain control groups contain 100 μl of HBSS only.
(§1) SYTOX Green nucleic acid stain is a high-affinity nucleic acid stain that easily penetrates cells with a compromised plasma membrane but will not cross the membrane of live cells. The nucleic acids of dead cells fluoresce bright green at 524 nm when excited with the 488 nm spectral source or with any other 450-500 nm source. […] In the cell viability assay chemical ischemia is created in cells and then cells are incubated with the SYTOX dye. The compound antimycin is used to simulate ischemia at the same time as stimulating the cells with forskolin. […] The assay is performed on cells grown in 96-well format allowing high throughput screening of compounds.
Aliquot at 100 μl. This 10 mM stock is then diluted to 1 mM with DMSO and aliquoted at 25 μL. Both the 10 mM and the 1 mM are stored at −20° C. until use. […] Aliquot at 100 μl and store at −20° C. until use. iv.) HBSS-SYTOX-FORSKOLIN-ANTIMYCIN (H-S-F-A) solution: H-S-F-A solution is made up fresh prior to each assay in sterile 175 ml or 225 ml Falcon bottles. […]
Cells are grown in 96-well black plates (with or without clear bottoms) at a density of 1000 cells per well for 24 hours. The necessary number of 96-well plates containing the specific cell type are obtained and placed in the laminar flow safety cabinet. A sterile microtiter basin is filled with the appropriate volume of pre-warmed 1×HBSS. Using aseptic technique and an 8-channel aspirator, the media is carefully removed from the cells and replaced with 200 μl of 1×HBSS. This is done as quickly as possible to prevent the cells drying out. The plates are then placed in the humidified 37° C. incubators of the Biomek 2000 Side Loader. Four plates are washed at a time so as to minimize the time that the cells are sitting in 1×HBSS prior to addition of the H-S-A-compound test solution.
(§2) Compound(s) are mixed with the 1 μM SYTOX working solution and added to the washed cell culture wells. Fluorescence is measured at designated time points (488 nm excitation and 530 nm emission). All of the sample readings subtract the background readings, which is cell-free wells only containing HBSS buffer with SYTOX green dye. The data is compared to non-treated cells (control) and is expressed as mean±S.D. from 4 culture wells. SYTOX Green fluorescence units obtained from each group are corrected for basal fluorescence (cell-free wells with only HBSS and fluorescence reagent). Data are represented as mean±SD. A paired t-test is performed comparing treated groups (Toxin+Agent) with non-treated groups (Toxin only) after subtracting the control groups (HBSS only) for each data set. Comparisons among groups are statistically evaluated by two-tailed t-test (Graphpad Prism Software, version 2.0). Differences are considered significant at P<0.05.
Hesperetin, diosmin, luteolin and quercetin were tested individually for their ability to counteract disruptions of normal energy metabolism. Flavonoids were commercially obtained, generally from Sigma Chemical Co., St. Louis, Mo., and/or Aldrich Chemical Co., Milwaukee, Wis.

[1] = tested on: Oxidatively competent cells; assay: SYTOX cell death assay in oxidatively competent cells treated with antimycin A; format: cell-based
Protocol: Oxidatively competent cells are prepared as described in Example 1. and Example 2.A and are seeded onto 96-well plates at 1×10^3/well or 2.5×10^3/well as passage 15. The cells are grown in DMEM with 10% FBS and 1.5 g/L sodium bicarbonate for 24 or 48 hours to reach 85% confluence. The cells are washed once with HBSS and then 100 μl of HBSS containing different concentration of AA (Sigma, Cat #A 8674) is added to the cells. AA is dissolved in DMSO to make a stock solution of 50 mM, then diluted with HBSS to 25, 12.5, 6.25, 3.125, and 1.56 μM for dose-response curves. The cells, with or without AA, are incubated at 37° C. in a 5% CO2 humidified incubator for 1 to 5 hours. The concentration of AA is chosen to induce 75% or 100% cell death as a screening dose to test the effect of agents to protect against AA- induced cell toxicity. The concentration of agents used for screening will be dependent upon the agents. Certain control groups contain 100 μl of HBSS only.
as §1, §2
Oxidatively competent cells were treated simultaneously with hesperetin, chrysin and 100 nM antimycin A2.C. The cells were treated with various low concentrations of hesperetin and various concentrations of chrysin (Sigma Chemical Co., cat. #C3018). Hesperetin, chrysin and antimycin A were mixed together before treating the cells. Cell viability was measured at time points up to 5 hours using SYTOX, as described in Example 2.F.
In experiments carried out in support of the invention, various concentrations of diosmin and alpha-tocopherol were tested for synergistic ability to ameliorate disruption of energy metabolism secondary to stress. Oxidatively competent cells were treated simultaneously with diosmin, alpha-tocopherol and antimycin A2.C. The cells were treated with various low concentrations of diosmin (Sigma Chemical Co., cat. #D3525) and various low concentrations of (+/−) alpha-tocopherol. Diosmin, alpha-tocopherol and antimycin were mixed together before treating cells. Cell viability was measured 4 hours after treatment using SYTOX. […] Likewise, the combination of disomin (11-100 μM) with 1.1 μg/ml (+/−) alpha tocopherol was synergistic. […] Diosmin alone provided no protection at a concentration of 100 μM. […] A combination of 100 μM diosmin and 11 μg/ml (+/−) alpha tocopherol was also synergistic. […]

[2] = cited from earlier work
[3] = 25 μM hesperetin alone, 4 hours, control cell death 82.9%

Structure (SMILES): COc1ccc([C@@H]2CC(=O)c3c(O)cc(O)cc3O2)cc1O [Hesperetin, (S)-2,3-dihydro-5,7-dihydroxy-2-(3-hydroxy-4-methoxyphenyl)-4H-1-benzopyran-4-one]
- Cell Death (GCL1 cells; [3]): 81.1%
- reduction in cell death (GCL1 cells; [3]): 1.8%
- protection (GCL1 cells; 50 μM Hesperetin alone): 14.4%
- Cell Death (GCL1 cells; 50 μM Hesperetin alone, 4 hours, control 82.1%): 81.3%
- Cell Death (GCL1 cells; 50 μM hesperetin alone, 4 hours, control 97.4%): 92.6%
- protection above control level (GCL1 cells; 75 μM Hesperetin by itself): 7.5%
- Cell Death (GCL1 cells; Hesperetin 1.9 μM, antimycin A 100 nM, time 0:00 hr:min): 0.0% ± 0.0
- Cell Death (GCL1 cells; Hesperetin 1.9 μM, antimycin A 100 nM, time 1:45 hr:min): 0.5% ± 0.6
- Cell Death (GCL1 cells; Hesperetin 1.9 μM, antimycin A 100 nM, time 2:45 hr:min): 30.4% ± 3.3
- Cell Death (GCL1 cells; Hesperetin 1.9 μM, antimycin A 100 nM, time 3:45 hr:min): 66.0% ± 3.1
- Cell Death (GCL1 cells; Hesperetin 1.9 μM, antimycin A 100 nM, time 4:45 hr:min): 81.5% ± 1.4
- Cell Death (GCL1 cells; Hesperetin 6 μM, antimycin A 100 nM, time 0:00 hr:min): 0.0% ± 0.0
- Cell Death (GCL1 cells; Hesperetin 6 μM, antimycin A 100 nM, time 1:45 hr:min): 1.8% ± 0.8
- Cell Death (GCL1 cells; Hesperetin 6 μM, antimycin A 100 nM, time 2:45 hr:min): 28.4% ± 1.5
- Cell Death (GCL1 cells; Hesperetin 6 μM, antimycin A 100 nM, time 3:45 hr:min): 65.0% ± 1.5
- Cell Death (GCL1 cells; Hesperetin 6 μM, antimycin A 100 nM, time 4:45 hr:min): 81.8% ± 0.7
- Cell Death (GCL1 cells; Hesperetin 17 μM, antimycin A 100 nM, time 0:00 hr:min): 0.0% ± 0.0
- Cell Death (GCL1 cells; Hesperetin 17 μM, antimycin A 100 nM, time 2:45 hr:min): 27.2% ± 2.0
- Cell Death (GCL1 cells; Hesperetin 17 μM, antimycin A 100 nM, time 3:45 hr:min): 64.1% ± 0.6
- Cell Death (GCL1 cells; Hesperetin 17 μM, antimycin A 100 nM, time 4:45 hr:min): 80.3% ± 1.0
- Cell Death (GCL1 cells; Hesperetin 50 μM, antimycin A 100 nM, time 0:00 hr:min): 0.0% ± 0.0
- Cell Death (GCL1 cells; Hesperetin 50 μM, antimycin A 100 nM, time 1:45 hr:min): 2.3% ± 0.3
- Cell Death (GCL1 cells; Hesperetin 50 μM, antimycin A 100 nM, time 2:45 hr:min): 14.4% ± 2.2
- Cell Death (GCL1 cells; Hesperetin 50 μM, antimycin A 100 nM, time 3:45 hr:min): 53.1% ± 5.7
- Cell Death (GCL1 cells; Hesperetin 50 μM, antimycin A 100 nM, time 4:45 hr:min): 74.0% ± 6.2
- protective effect (GCL1 cells; concentrations of 50 μM and below): little, if any, protective effect
- Cell Death ([1]; 50 μM hesperetin alone, control 72.9%): 73.4%
- protection when tested separately ([1]; 2 and 50 μM hesperetin, four hours): generally ineffective
- abnormalities observed for a week ([2]; administered orally to mice at 100 mg/kg (U.S. Pat. No. 5,650,433)): no abnormalities were observed
- effects on liver function ([2]; tests using mice): no adverse effects on liver function
- toxicity or mitogenicity ([2]; tests using mice): little toxicity or mitogenicity

Source: patent US6528042B1, “Compositions of flavonoids for use as cytoprotectants and methods of making and using them” (Galileo Laboratories, Inc., priority 1999, dated 2003)
